Structures can show the parent of a compound that is named as a salt. Where two headings read alike, the source gives them in different places.
Columns and labels:
[1] = Plasma stability test, dog plasma; assay type: in vitro ADME; conditions: Dog plasma, 37°C; for half-life: read-out: t1/2 (converted);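 on all read-outs here: parent compound left in dog plasma quantified by LC-MS with positive electrospray ionization, selected reaction monitoring and an internal standard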
Description: (§1) Liquid chromatography-mass spectrometer, centrifuge, vortexer, pipette, continuous dispenser, 96-well plate, 50% methanol aqueous solution, acetonitrile solution containing internal standard, blank matrix (plasma of rat, dog, or human), Propantheline (propantheline bromide), Mevinolin (lovastatin), and test compound.
(§2) After whole blood was collected from animals or humans, it was placed in a test tube containing an anticoagulant and centrifuged at 3500 rpm for 10 min to collect the upper pale yellow plasma.
(§3) The compound was weighed and the stock solution was formulated with DMSO and the working solution was formulated with 100 mM phosphate buffer.
(§4) • Instrument: API4000 liquid chromatography-mass spectrometer, AB Company, USA; • the ion source was electrospray ionization source (ESI); • drying gas (N2) temperature was 500°C; • electrospray voltage was 5500V; • the detection method was positive ion detection; • the scanning method was selected reaction monitoring (MRM); • the scanning time was 0.1s.

[2] = Plasma stability test, mouse plasma; assay type: in vitro ADME; conditions: Mouse plasma, 37°C; for half-life: read-out: t1/2 (converted);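 on all read-outs here: test compound quantified by LC-MS using positive-mode electrospray ionization and MRM scanning, with an internal standard added in acetonitrile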
Description: as §1, §2, §3, §4

[3] = Pharmacokinetic determination in mice (IV and PO, plasma, LCMS/MS); assay type: in vivo, Balb/c mice; conditions: for F: PO 30 mg/kg vs IV 1 mg/kg; for AUC(0-inf) / C0 / clearance / half-life / Cmax / Tmax: mouse, in vivo, plasma; for C0: read-out: C0; for clearance: read-out: CL; for half-life: read-out: T1/2 (converted); for Cmax: read-out: Cmax; for Tmax: read-out: Tmax
In short: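 Male Balb/c mice, fasted overnight (n=3 per route): PO 30 mg/kg in 10% Captisol/50 mM citrate pH 5.0, or IV 1 mg/kg in 5% DMSO/10% Solutol HS15/85% PBS. Orbital blood sampled predose to 24 h; EDTA plasma analysed by LC-MS/MS.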

[4] = Plasma stability test, human plasma; assay type: in vitro ADME; conditions: Human plasma, 37°C; for half-life: read-out: t1/2 (converted);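 on all read-outs here: test compound incubated in human plasma, quantified by LC-MS/MS (positive-ion ESI, MRM) against an internal standard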
Description: as §1, §2, §3, §4

[5] = Balb/c mice, intravenously (IV), 1 mg/kg, read-out: AUCo-∞
[6] = Balb/c mice, intravenously (IV), 1 mg/kg
[7] = PO, 30 mg/kg, male Balb/c mice, overnight fasting, read-out: AUC0-∞
[8] = PO, 30 mg/kg, male Balb/c mice, overnight fasting

With `C#Cc1c(F)ccc2cc(O)cc(-c3nc4c5c(nc(OCC6(CN7CCC(=C(F)F)CC7)CC6)nc5c3F)N3C[C@H]5CC[C@H](N5)[C@H]3[C@H](C)O4)c12` [Example 19-1, 4-((5S,5aS,6S,9R)-12-((1-((4-(difluoromethylene)piperidin-1-yl)methyl)cyclopropyl)methoxy)-1-fluoro-5-methyl-5a,6,7,8,9,10-hexahydro-5H-4-oxa-3,10a,11,13,14-pentaaza-6,9-methylnaphtho[1,8-ab]hept-2-yl)-5-ethynyl-6-fluoronaphthalene-2-ol] the “Remaining rate (%) 0 min” value [1] was 100.00%, the “Remaining rate (%) 15 min” value [1] was 95.89% and the “Remaining rate (%) 30 min” value [1] was 101.96%. The “Remaining rate (%) 60 min” value [1] was 101.84%, the “Remaining rate (%) 120 min” value [1] was 94.59% and the half-life [1] was 75.5 h. For the same compound, the “Remaining rate (%) 0 min” value [2] was 100.00%, the “Remaining rate (%) 15 min” value [2] was 101.30% and the “Remaining rate (%) 30 min” value [2] was 98.20%. The “Remaining rate (%) 60 min” value [2] was 91.51%, the “Remaining rate (%) 120 min” value [2] was 92.09% and the half-life [2] was 27.4 h. For the same compound, the F ([3]; male Balb/c mice) was 11.2%, the AUC(0-inf) [3, 5] was 0.476 µg·h/mL and the C0 [3, 6] was 0.904 µg/mL. For the same compound, the clearance [3, 6] was 2.1 L/h/kg, the half-life [3, 6] was 11.2 h and the AUC(0-inf) [3, 7] was 1.61 µg·h/mL. It also gave a Cmax [3, 8] of 0.316 µg/mL, a half-life [3, 8] of 7.2 h and a Tmax [3, 8] of 1 h. The “Remaining rate (%) 0 min” value [4] was 100.00%, the “Remaining rate (%) 15 min” value [4] was 95.61% and the “Remaining rate (%) 30 min” value [4] was 93.15%. The “Remaining rate (%) 60 min” value [4] was 85.08%, the “Remaining rate (%) 120 min” value [4] was 83.37% and the half-life [4] was 15.5 h.

`CON=C1CCN(CC2(COc3nc4c5c(nc(-c6cc(N)cc(Cl)c6C(F)(F)F)c(F)c5n3)O[C@@H](C)[C@@H]3[C@@H]5CC[C@H](CN43)N5)CC2)CC1` [Example 337, 1-((1-((((5S,5aS,6S,9R)-2-(5-amino-3-chloro-2-(trifluoromethyl)phenyl)-1-fluoro-5-methyl-5a,6,7,8,9,10-hexahydro-5H-4-oxa-3,10a,11,13,14-pentaaza-6,9-methylnaphtho[1,8-ab]heptene-12-yl)oxy)methyl)cyclopropyl)methyl)piperidin-4-one O-methyloxime] gave an AUC(0-inf) [3, 7] of 0.632 µg·h/mL, a Cmax [3, 8] of 0.204 µg/mL and a half-life [3, 8] of 1.7 h. It also gave a Tmax [3, 8] of 1 h.

With `C#Cc1c(F)ccc2cc(O)cc(-c3nc4c5c(nc(OCC6(CN7CCC(=NOC)CC7)CC6)nc5c3F)N3C[C@H]5CC[C@H](N5)[C@H]3[C@H](C)O4)c12` [Example 35-1, 1-((1-((((5S,5aS,6S,9R)-2-(8-ethynyl-7-fluoro-3-hydroxynaphthalen-1-yl)-1-fluoro-5-methyl-5a,6,7,8,9,10-hexahydro-5H-4-oxa-3,10a,11,13,14-pentaaza-6,9-methylenenaphtho[1,8-ab]heptalen-12-yl)oxo)methyl)cyclopropyl)methyl)piperidin-4-one O-methyloxime formate] the AUC(0-inf) [3, 5] was 0.144 µg·h/mL, the C0 [3, 6] was 0.693 µg/mL and the clearance [3, 6] was 6.97 L/h/kg. For the same compound, the half-life [3, 6] was 3.2 h.

In the case of `[2H]C([2H])([2H])[C@@H]1Oc2nc(-c3cc(O)cc4ccc(F)c(C#C)c34)c(F)c3nc(OCC4(CN5CCC(=CF)CC5)CC4)nc(c23)N2C[C@H]3CC[C@H](N3)[C@@H]12` [Example 164], the “Remaining rate (%) 0 min” value [1] is reported as 100.00%, the “Remaining rate (%) 15 min” value [1] is reported as 92.40% and the “Remaining rate (%) 30 min” value [1] is reported as 94.94%. The “Remaining rate (%) 60 min” value [1] was 96.81%, the “Remaining rate (%) 120 min” value [1] was 91.42% and the half-life [1] was 51.9 h. For the same compound, the “Remaining rate (%) 0 min” value [2] was 100.00%, the “Remaining rate (%) 15 min” value [2] was 99.34% and the “Remaining rate (%) 30 min” value [2] was 95.56%. For the same compound, the “Remaining rate (%) 60 min” value [2] was 101.65%, the “Remaining rate (%) 120 min” value [2] was 100.99% and the half-life [2] was 149 h. The “Remaining rate (%) 0 min” value [4] was 100.00%, the “Remaining rate (%) 15 min” value [4] was 97.48% and the “Remaining rate (%) 30 min” value [4] was 91.02%. For the same compound, the “Remaining rate (%) 60 min” value [4] was 93.68%, the “Remaining rate (%) 120 min” value [4] was 89.66% and the half-life [4] was 30.3 h.

`[2H]C([2H])([2H])[C@@H]1Oc2nc(-c3cc(N)cc(Cl)c3C(F)(F)F)c(F)c3nc(OCC4(CN5CCC(=NOC)CC5)CC4)nc(c23)N2C[C@H]3CC[C@H](N3)[C@@H]12` [Example 339] showed an F ([3]; male Balb/c mice) of 13.8%, an AUC(0-inf) [3, 5] of 0.133 µg·h/mL and a C0 [3, 6] of 0.188 µg/mL. It also gave a clearance [3, 6] of 7.5 L/h/kg, a half-life [3, 6] of 4.8 h and an AUC(0-inf) [3, 7] of 0.476 µg·h/mL. For the same compound, the Cmax [3, 8] was 0.143 µg/mL, the half-life [3, 8] was 1.8 h and the Tmax [3, 8] was 1 h.

In the case of `[2H]C([2H])(Oc1nc2c3c(nc(-c4cc(O)cc5ccc(F)c(C#C)c45)c(F)c3n1)O[C@@H](C)[C@@H]1[C@@H]3CC[C@H](CN21)N3)C1(C([2H])([2H])N2CCC(=CF)CC2)CC1` [Example 291, 5-ethynyl-6-fluoro-4-((5S,5aS,6S,9R)-1-fluoro-12-((1-((4-(fluoromethylene)piperidin-1-yl)methyl-d2)cyclopropyl)methoxy-d2)-5-methyl-5a,6,7,8,9,10-hexahydro-5H-4-oxa-3,10a,11,13,14-pentaaza-6,9-methylnaphtho[1,8-ab]hept-2-yl)naphthalen-2-ol], the “Remaining rate (%) 0 min” value [1] is reported as 100.00%, the “Remaining rate (%) 15 min” value [1] is reported as 104.39% and the “Remaining rate (%) 30 min” value [1] is reported as 94.89%. For the same compound, the “Remaining rate (%) 60 min” value [1] was 103.00%, the “Remaining rate (%) 120 min” value [1] was 99.65% and the half-life [1] was 94.6 h. The “Remaining rate (%) 0 min” value [2] was 100.00%, the “Remaining rate (%) 15 min” value [2] was 97.50% and the “Remaining rate (%) 30 min” value [2] was 82.58%. For the same compound, the “Remaining rate (%) 60 min” value [2] was 81.82%, the “Remaining rate (%) 120 min” value [2] was 63.23% and the half-life [2] was 3.08 h. For the same compound, the “Remaining rate (%) 0 min” value [4] was 100.00%, the “Remaining rate (%) 15 min” value [4] was 102.43% and the “Remaining rate (%) 30 min” value [4] was 95.46%. For the same compound, the “Remaining rate (%) 60 min” value [4] was 105.44%, the “Remaining rate (%) 120 min” value [4] was 96.68% and the half-life [4] was 115 h.

In the case of `C#Cc1c(F)ccc2cc(O)cc(-c3nc4c5c(nc(OCC6(CN7CCC(=C(F)F)CC7)CC6)nc5c3F)N3C[C@H]5CC[C@H](N5)[C@H]3CO4)c12` [Example 1-1, 4-((5aS,6S,9R)-12-((1-((4-(difluoromethylene)piperidin-1-yl)methyl)cyclopropyl)methoxy)-1-fluoro-5a,6,7,8,9,10-hexahydro-5H-4-oxa-3,10a,11,13,14-pentaaza-6,9-methylenenaphtho[1,8-ab]heptalene-2-yl)-5-ethynyl-6-fluoronaphthalen-2-ol], the “Remaining rate (%) 0 min” value [1] is reported as 100.00%, the “Remaining rate (%) 15 min” value [1] is reported as 100.25% and the “Remaining rate (%) 30 min” value [1] is reported as 105.57%. For the same compound, the “Remaining rate (%) 60 min” value [1] was 104.40%, the “Remaining rate (%) 120 min” value [1] was 93.99% and the half-life [1] was 48.9 h. The “Remaining rate (%) 0 min” value [2] was 100.00%, the “Remaining rate (%) 15 min” value [2] was 94.74% and the “Remaining rate (%) 30 min” value [2] was 96.27%. For the same compound, the “Remaining rate (%) 60 min” value [2] was 96.21%, the “Remaining rate (%) 120 min” value [2] was 98.50% and the half-life [2] was 146 h. It also gave an F ([3]; male Balb/c mice) of 12.1%, an AUC(0-inf) [3, 5] of 0.583 µg·h/mL and a C0 [3, 6] of 0.886 µg/mL. For the same compound, the clearance [3, 6] was 1.72 L/h/kg, the half-life [3, 6] was 8.6 h and the AUC(0-inf) [3, 7] was 2.11 µg·h/mL. The Cmax [3, 8] was 0.227 µg/mL, the half-life [3, 8] was 9.1 h and the Tmax [3, 8] was 0.5 h. The “Remaining rate (%) 0 min” value [4] was 100.00%, the “Remaining rate (%) 15 min” value [4] was 100.68% and the “Remaining rate (%) 30 min” value [4] was 101.72%. For the same compound, the “Remaining rate (%) 60 min” value [4] was 97.62%, the “Remaining rate (%) 120 min” value [4] was 88.35% and the half-life [4] was 31.4 h.
